According to US20240174618A1, “SUBSTITUTED (2-HETEROARYLOXYPHENYL)SULFONATES, SALTS THEREOF AND THEIR USE AS HERBICIDAL AGENTS” (Bayer Aktiengesellschaft, priority 2021, published 2024):

Columns and labels:
Type in all cases: in vivo
[1] = tested on: Matricaria inodora (MATIN); experiment: A. Herbicidal pre-emergence efficacy, MATIN
Outline: (§1)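 Pre-emergence soil-surface spray in sandy loam pots, WP/EC in water plus 0.5% additive, 600 L/ha. Visual % damage rating after about 3 weeks in greenhouse vs. untreated; 0% = control-like, 100% = dead plants. Rates up to 1280 g/ha.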

[2] = tested on: Stellaria media (STEME); experiment: B. Herbicidal post-emergence efficacy, STEME
Outline: (§2)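 Post-emergence greenhouse test: one-leaf-stage plants, compound (WP/EC, +0.5% additive, 600 L/ha water, ≤1280 g/ha) applied to green parts; % efficacy scored visually vs untreated after ~3 wk; 100% = plants died.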

[3] = tested on: Abutilon theophrasti (ABUTH); experiment: B. Herbicidal post-emergence efficacy, ABUTH; conditions: rated visually after about 3 weeks
Outline: as §2

[4] = tested on: Poa annua (POAAN); experiment: A. Herbicidal pre-emergence efficacy, POAAN
Outline: as §1

[5] = tested on: Amaranthus retroflexus (AMARE); experiment: C. Herbicidal pre-emergence efficacy, AMARE; conditions: scored after about 3 weeks
Outline: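 Pre-emergence test: formulated compounds sprayed as aqueous suspension or emulsion with 0.5% additive at 600 l/ha onto soil covering sown seeds, at rates corresponding to 320 g/ha or less. After about 3 weeks in greenhouse, efficacy scored visually as percent versus untreated controls (100% = plants dead).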

[6] = tested on: Veronica persica (VERPE); experiment: E. Herbicidal post-emergence efficacy, VERPE
Outline: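 Greenhouse weeds were treated post-emergence at the one-leaf stage, 2-3 weeks after sowing in sandy loam, with WP or EC formulations sprayed as aqueous suspension/emulsion plus 0.5% additive at 600 l/ha, at 320 g/ha or less. Efficacy was rated visually after about 3 weeks versus untreated controls (100% = dead, 0% = like control).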

[7] = tested on: Polygonum convolvulus (POLCO); experiment: E. Herbicidal post-emergence efficacy, POLCO
Experimental: Seeds of monocotyledonous and dicotyledonous weeds and crop plants were placed in sandy loam in plastic or organic planting pots, covered with soil and cultivated in a greenhouse under controlled growth conditions. 2 to 3 weeks after sowing, the test plants were treated at the one-leaf stage. The compounds of the invention, formulated in the form of wettable powders (WP) or as emulsion concentrates (EC), were then sprayed onto the green parts of the plants as aqueous suspension or emulsion with addition of 0.5% additive at a water application rate of 600 l/ha (converted). After the test plants had been kept in the greenhouse under optimum growth conditions for about 3 weeks, the activity of the preparations was rated visually in comparison to untreated controls.
For example, • 100% efficacy=plants have died, • 0% action=like untreated control plants.
Tables E1a to E12b below show the effects of selected compounds of the general formula (I) according to table 1 on various harmful plants at an application rate corresponding to 320 g/ha or less, which were obtained by the experimental procedure mentioned above.

[8] = pre-emergence, dosage 1280 g/ha
[9] = 320 g/ha, scored visually after about 3 weeks vs untreated controls

SMILES	Pre-emergence efficacy against MATIN [1, 8] [%]	Post-emergence efficacy against STEME ([2]; 80 g/ha) [%]	Post-emergence efficacy against STEME ([2]; 320 g/ha) [%]	Post-emergence efficacy against STEME ([2]; 1280 g/ha) [%]	Post-emergence efficacy against ABUTH in % ([3]; 320 g/ha) [%]	Post-emergence efficacy against ABUTH in % ([3]; 1280 g/ha) [%]	Pre-emergence efficacy against POAAN ([4]; dosage 80 g/ha) [%]	Pre-emergence efficacy against POAAN ([4]; dosage 320 g/ha) [%]	Pre-emergence efficacy against POAAN ([4]; dosage 1280 g/ha) [%]	Pre-emergence efficacy against AMARE ([5]; 80 g/ha) [%]	Pre-emergence efficacy against AMARE ([5]; 320 g/ha) [%]	Post-emergence efficacy against VERPE in % ([6]; application rate 80 g/ha) [%]	Post-emergence efficacy against VERPE in % ([6]; application rate 320 g/ha) [%]	Pre-emergence efficacy against MATIN [1, 9] [%]	Post-emergence efficacy against ABUTH in % ([3]; 80 g/ha) [%]	Post-emergence efficacy against POLCO in % ([7]; application rate 320 g/ha) [%]	Post-emergence efficacy against POLCO in % ([7]; application rate 80 g/ha) [%]
Cc1cccc(Oc2ncc(Cl)cn2)c1OS(=O)(=O)CCCC(F)(F)F [Example I-28, 2-[(5-Chloropyrimidin-2-yl)oxy]-6-methylphenyl 4,4,4-trifluorobutane-1-sulfonate]	100	90	100	100	100	100	90	100	100								
CCCCCS(=O)(=O)Oc1ccccc1Oc1ncc(Cl)cn1 [Example I-24]		90	90	100	90	90		100	100	100	100	90	100				
CCS(=O)(=O)Oc1ccccc1Oc1ncc(Cl)cn1 [Example I-16]	100	90	100	100	90	100		100	100					100			
CC(C)CCS(=O)(=O)Oc1ccccc1Oc1ncc(Cl)cn1 [Example I-25]	100	90	100	100	90	100		100	100	100	100	90	100				
C=CCS(=O)(=O)Oc1ccccc1Oc1ncc(Cl)cn1 [Example I-36]				100					90		100	80	100				
O=S(=O)(CCCC(F)(F)F)Oc1c(Br)cccc1Oc1ncc(Cl)cn1 [Example I-30]	100	100	100	100	90	100	90	100	100						90		
O=S(=O)(CCl)Oc1ccccc1Oc1ncc(Cl)cn1 [Example I-9]	100			90	90	90		90	100	100	100	80	90	90		90	
O=S(=O)(CCC(F)(F)F)Oc1c(Cl)cccc1Oc1ncc(Br)cn1 [Example I-32]	90	100	100	100	100	100		90	90	100	100	100	100		100	100	80
O=S(=O)(CCCC(F)(F)C(F)(F)F)Oc1c(F)cccc1Oc1ncc(Cl)cn1 [Example I-68]	100	90	100	100	100	100		90	100	100	100	100	100	100	100	90	80
O=S(=O)(CCCC(F)(F)F)Oc1c(Cl)cccc1Oc1ncc(Br)cn1 [Example I-34]		100	100	100	100	100		90	90	100	100	100	100		90	100	
O=S(=O)(CCC(F)(F)F)Oc1c(Br)cccc1Oc1ncc(Cl)cn1 [Example I-31]	90	100	100	100	100	100	90	100	100						90		
O=S(=O)(CCCCl)Oc1cccc(F)c1Oc1ncc(Cl)cn1 [Example I-13]			90	100		90		90	100		100		90			80	
Cc1cccc(Oc2ncc(Cl)cn2)c1OS(=O)(=O)CC1CC(F)(F)C1 [Example I-74]		100	100	100	100	100		100	100	90	100	90	100		100		
Cc1cccc(OS(=O)(=O)CCCCl)c1Oc1ncc(Cl)cn1 [Example I-12]	100	90	90	100				100	100	100	100	100	100	90		100	
O=S(=O)(CCC(F)(F)F)Oc1c(Br)cccc1Oc1ncc(F)cn1 [Example I-43]	90		100	100	90	100		100	100	100	100	100	100			90	
Cc1cccc(Oc2ncc(Cl)cn2)c1OS(=O)(=O)CCC(F)(F)F [Example I-29]	90	90	100	100	100	100	90	100	100						90		
